According to ChEMBL document CHEMBL1201862, “PubChem BioAssay data set” (2004):
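Protocol summary: plate cells (96-well), add compound at 5 concentrations, incubate 48 h, interpolate endpoints linearly. GI50: concentration for 50% inhibition of growth.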 Calls of active or inactive are those of the source. No stated cut-off is given here; in the data, active = GI50 up to about 1.1 µM and inactive = higher.

Tests used:
Assay in all cases: DTP human tumour cell line panel, 48 h
UACC-257 = test system: UACC-257
HOP-62 = test system: HOP-62
NCI-H23 = test system: NCI-H23
EKVX = test system: EKVX
SN12C = test system: SN12C
PC-3 = test system: PC-3
RPMI-8226 = test system: RPMI-8226
786-0 = test system: 786-0
COLO 205 = test system: COLO 205
MDA-MB-435 = test system: MDA-MB-435
CAKI-1 = test system: CAKI-1
A498 = test system: A498
IGROV-1 = test system: IGROV-1
T47D = test system: T47D
LOX IMVI = test system: LOX IMVI
UO-31 = test system: UO-31
CCRF-CEM = test system: CCRF-CEM
DU-145 = test system: DU-145
HCC 2998 = test system: HCC 2998
SK-MEL-28 = test system: SK-MEL-28

Measured: GI50

Nc1ccc(-c2nc3ccccc3s2)cc1C#Cc1ccccc1
inactive: UACC-257 16 µM | HOP-62 14.5 µM | NCI-H23 20.9 µM | EKVX 20.7 µM | SN12C 18.8 µM | PC-3 18.5 µM | RPMI-8226 20.9 µM | 786-0 17.7 µM | COLO 205 16.3 µM | MDA-MB-435 19.1 µM | CAKI-1 15.8 µM | A498 21 µM | IGROV-1 10.7 µM | T47D 27 µM | LOX IMVI 19 µM | UO-31 18.3 µM | CCRF-CEM 29.2 µM | DU-145 23.8 µM

O=C(N(C1=CCCC1)N(c1ccccc1)c1ccccc1)C(F)(F)F
inactive: UACC-257 21.6 µM | HOP-62 25.5 µM | NCI-H23 30.4 µM | EKVX 17.5 µM | SN12C 26.9 µM | PC-3 30.3 µM | 786-0 27.7 µM | COLO 205 18.6 µM | MDA-MB-435 21.1 µM | HCC 2998 18.2 µM | CAKI-1 20.2 µM | A498 51.8 µM | T47D 17 µM | SK-MEL-28 28.4 µM | LOX IMVI 15.8 µM | UO-31 31.6 µM | CCRF-CEM 23.4 µM | DU-145 30.8 µM

N#CC1=CNc2sccc2S1(=O)=O
inactive: UACC-257 > 100 µM | HOP-62 > 100 µM | NCI-H23 > 100 µM | EKVX > 100 µM | SN12C > 100 µM | PC-3 > 100 µM | RPMI-8226 > 100 µM | 786-0 > 100 µM | COLO 205 > 100 µM | MDA-MB-435 89.7 µM | HCC 2998 39.8 µM | CAKI-1 > 100 µM | A498 > 100 µM | IGROV-1 > 100 µM | T47D 72.9 µM | SK-MEL-28 > 100 µM | LOX IMVI > 100 µM | UO-31 92.9 µM | DU-145 > 100 µM

O=c1c2ccccc2nc2[nH][nH]c(=S)n12
inactive: UACC-257 > 100 µM | HOP-62 > 100 µM | NCI-H23 > 100 µM | EKVX 83.6 µM | SN12C > 100 µM | PC-3 > 100 µM | RPMI-8226 > 100 µM | 786-0 > 100 µM | COLO 205 > 100 µM | MDA-MB-435 > 100 µM | CAKI-1 > 100 µM | A498 > 100 µM | IGROV-1 > 100 µM | T47D > 100 µM | SK-MEL-28 > 100 µM | LOX IMVI > 100 µM | UO-31 > 100 µM | CCRF-CEM > 100 µM | DU-145 > 100 µM

C=C1C(=O)CCC1C(=O)O (stereo not given)
inactive: UACC-257 61.8 µM | HOP-62 > 100 µM | NCI-H23 > 100 µM | EKVX > 100 µM | SN12C > 100 µM | PC-3 > 100 µM | RPMI-8226 > 100 µM | 786-0 > 100 µM | COLO 205 > 100 µM | MDA-MB-435 > 100 µM | HCC 2998 > 100 µM | A498 > 100 µM | IGROV-1 > 100 µM | T47D > 100 µM | SK-MEL-28 > 100 µM | LOX IMVI > 100 µM | UO-31 > 100 µM | CCRF-CEM > 100 µM | DU-145 > 100 µM

Cn1c(=O)c2c([nH]/c(=N/N=C/c3ccccc3C(=O)O)n2C)n(C)c1=O
inactive: UACC-257 > 100 µM | HOP-62 > 100 µM | NCI-H23 > 100 µM | EKVX > 100 µM | SN12C > 100 µM | PC-3 > 100 µM | RPMI-8226 > 100 µM | 786-0 > 100 µM | COLO 205 > 100 µM | MDA-MB-435 > 100 µM | CAKI-1 > 100 µM | A498 > 100 µM | IGROV-1 > 100 µM | T47D > 100 µM | SK-MEL-28 > 100 µM | LOX IMVI > 100 µM | UO-31 > 100 µM | CCRF-CEM > 100 µM | DU-145 > 100 µM

COc1ccc(/[N+]([O-])=C/c2ccccc2OC(=S)S)cc1
inactive: UACC-257 29 µM | NCI-H23 27.7 µM | EKVX 40.2 µM | SN12C 24.5 µM | PC-3 39.3 µM | RPMI-8226 25.6 µM | 786-0 24.9 µM | COLO 205 30.1 µM | MDA-MB-435 21.4 µM | HCC 2998 44.5 µM | CAKI-1 33.7 µM | A498 26.1 µM | IGROV-1 27.6 µM | T47D 41.8 µM | SK-MEL-28 72.8 µM | LOX IMVI 20.1 µM | UO-31 24.6 µM | DU-145 39.9 µM
